# Data taken from ChEMBL document CHEMBL5321250, “Polyketide- and Terpenoid-Derived Metabolites Produced by a Marine-Derived Fungus, Peroneutypa sp” (J Nat Prod, 2023).
# What was measured:
# [1] = tested on: Plasmodium falciparum; assay: Antimalarial activity against Plasmodium falciparum 3D7 assessed as reduction in parasitemia measured after 72 hrs by SYBR Green I dye based fluorescence assay; format: functional, organism-based; conditions: 3D7, 72 h
# [2] = tested on: Plasmodium falciparum; assay: Antimalarial activity against CQ/SDX/PYR/MQ/CYC resistant Plasmodium falciparum Dd2 assessed as reduction in parasitemia measured after 72 hrs by SYBR Green I dye based fluorescence assay; format: functional, organism-based; conditions: Dd2, 72 h
# [3] = Resistance index, ratio of IC50 for antimalarial activity against CQ/SDX/PYR/MQ/CYC resistant Plasmodium falciparum Dd2 to IC50 for antimalarial activity against Plasmodium falciparum 3D7; format: functional
# [4] = Resistance index, ratio of IC50 for antimalarial activity against CQ/PYR/ATO resistant Plasmodium falciparum TM90C6B to IC50 for antimalarial activity against Plasmodium falciparum 3D7; format: functional
# [5] = tested on: Plasmodium falciparum; assay: Antimalarial activity against MMV848 resistant Plasmodium falciparum 3D7r_MMV848 assessed as reduction in parasitemia measured after 72 hrs by SYBR Green I dye based fluorescence assay; format: functional, organism-based; conditions: 3D7r_MMV848, 72 h
# [6] = Resistance index, ratio of IC50 for antimalarial activity against MMV848 resistant Plasmodium falciparum 3D7r_MMV848 to IC50 for antimalarial activity against Plasmodium falciparum 3D7; format: functional
# [7] = tested on: Plasmodium falciparum; assay: Antimalarial activity against CQ/PYR/ATO resistant Plasmodium falciparum TM90C6B assessed as reduction in parasitemia measured after 72 hrs by SYBR Green I dye based fluorescence assay; format: functional, organism-based
# [8] = Cytotoxicity against human HepG2 cells assessed as inhibition of cell growth incubated for 72 hrs by MTT assay; format: toxicity, cell-based
Compound,IC50 [1] [µM],IC50 [2] [µM],Ratio IC50 [3],Ratio IC50 [4],IC50 [5] [µM],Ratio IC50 [6],IC50 [7] [µM],IC50 at 72 h [8] [µM]
CCc1nc(N)nc(N)c1-c1ccc(Cl)cc1 [PYRIMETHAMINE],0.06,> 10,> 166,–,–,–,–,–
C[C@@H]1CC[C@H]2[C@@H](C)C(=O)O[C@@H]3O[C@@]4(C)CC[C@@H]1[C@]32OO4 [ARTEMISININ],0.006,0.011,2,1,0.013,2,–,–
CC(C)c1c(C(=O)Nc2ccccc2)c(-c2ccccc2)c(-c2ccc(F)cc2)n1CC[C@@H](O)C[C@@H](O)CC(=O)O [ATORVASTATIN],–,–,–,> 1430,–,–,> 1,–
O=c1occ(-c2ccc(O)cc2)c2cc(O)ccc12,19,37,1.9,1,23,1.2,19,> 100
